Reference: patent US7416870B2, “Methods of directing C-O bond formation utilizing a type II polyketide synthase system” (Wisconsin Alumni Research Foundation, priority 2002, dated 2008)

How the values were obtained:
[1] = tested on: NonL; test: In vitro assay of NonL as a CoA ligase (conversion of acids to CoA esters, HPLC); type: biochemical, Streptomyces griseus
Excerpt: Expression of nonL and characterization of NonL as a CoA ligase. The nonL gene was amplified from pBS2013 by PCR with forward primer of 5′-[…]-3′ (SEQ ID NO:12) (the NdeI site is underlined) and reverse primer of 3′-[…]-5′ (SEQ ID NO:13)(the EcoRI site is underlined) and cloned as a 1.7-kb NdeI-EcoRI fragment into the same sites of pET28a (Novagen, Madison, Wis.) to yield pBS2023. The expression of nonL in E. coli BL-21 (DE-3) (pBS2023) and purification of the resulting NonL protein by affinity chromatography on Ni-NTA resin were carried out under the standard conditions recommended by Novagen (FIG. 10). The incubation temperature was lowered to 15° C. to improve the solubility.
For in vitro assay of NonL as a CoA ligase, the complete assay solution (50 μl) consisted of 2 mM ATP, 2 mM CoA, 2 mM (±)-3, 10 mM KCl, 2 mM DTT, 5 mM MgCl2, 50 to 800 nM NonL in 10 mM Tris-HCl, pH 8.0. The reaction mixture was incubated at 30° C. for 2 hr and analyzed by HPLC on an Alltima C18 column (4.6×250 mm, 5μ, 100 Å, Alltech, Deerfield, Ill.). The column was first eluted in 20 mM NH4Ac, pH 5.8, for 5 min, followed by linear gradient from 0% to 50% CH3CN in 20 mM NH4Ac, pH 5.8 for 10 min, and maintained at 50% CH3CN in 20 mM NH4Ac for an additional 10 min, with flow rate of 0.8 ml/min and detection at 260 nm.
On the basis of its high sequence homology to a family of CoA ligases, the inventors reasoned that NonL, rather than directly contributing to the C—O bond-forming steps, instead activates (±)-3 into CoA esters (±)-2 that are then tetramerized into 1 by the NonJK KSs. To validate this hypothesis, the inventors expressed nonL in E. coli, purified NonL as a His6-tagged fusion protein (FIG. 10), and characterized NonL as a CoA ligase. The inventors monitored the in vitro assay of NonL by HPLC analysis: NonL catalyzes the conversion of (±)-3 to (±)-2, requiring CoA and ATP as co-substrates. Under the condition examined, 80% of (±)-3 was converted to (±)-2 in 2 hrs, confirming that NonL recognizes both (+)- and (−)-3 as substrates (FIG. 7). The identity of (±)-2 was verified by ESI-MS, yielding a characteristic (M−2H)^2− ion at m/z=474.7, consistent with the molecular formula of C31H52N7O19P3S.
In this particular experiment, the inventors expanded the category of synthetic 8 derivatives to determine the degree of flexibilities of each process in macrotetrolide biosynthesis. With minor modifications in the previously described method, (±)-8-n-propyl-nonactate (8), (±)-epi-8-n-propyl-nonactate (A), (±)-2-n-propyl-nonactate (B), and (±)-epi-2-n-propyl-nonactate (C) were prepared. These four compounds were tested for the CoA-activated by using purified NonL. […] The chromosomal DNA fragment encompassing nonJ and nonL from S. griseus DSM40695 was subcloned into pIJ4123 under the control of thiostrepton inducible promoter (tipAp) to generate pBS2045 that was introduced into S. lividans TK-24. For pIJ4123, see the reference; Takano, E.; White, J.; Thompson, C. J.; Bibb, M. J. Gene 1995, 160, 133.

[2] = tested on: NonJ; test: Dimer formation with cell-free extract of S. lividans (pBS2045) harboring nonL and nonJ; type: biochemical, Streptomyces griseus; conditions: CFE of S. lividans (pBS2045)
Method: Cell-free extract (CFE) preparation: S. lividans (pBS2045) were grown on Yeast Extract-Malt Extract (YEME, 34% sucrose) media supplemented with kanamycin (50 μg/ml), at 30° C. and 300 rpm for 1 d and added with thiostrepton (5 μg/ml). The thiostrepton-treated culture was maintained in the same condition for 1 d and then harvested by centrifugation (13,600 g, 20 min, 4° C.). Cell were lysed in 30 ml of 100 mM sodium phosphate buffer (pH, 8.0)-1 mM EDTA-50 mM KCl-10% glycerol with lysozyme (2 mg/ml) for 30 min at 4° C., sonicated for thirty 10-sec bursts at 300 W with a 30-sec cooling period between each burst. […]
Conditions for CFE-assay and chemical analysis: The assay solution consisted of 1 to 2 mM each of (±)-6, CoA, and ATP and 0.8 mg/ml of protein in 10 mM Tris-Cl (pH, 8.0)-10 mM KCl-2 mM DTT-5 mM MgCl2, and incubated at 30° C. for 1 h to 3 hs. […] The organic layer was analyzed for 1 by Thin-Layer Chromatography (TLC), Evaporative Light-Scattering Detector (ELSD)-High Performance Liquid Chromatography (HPLC), and positive Matrix-Assisted Laser Desorption Ionization (MALDI)-Mass Spectrometry (MS) analysis as previously described.^5d The aqueous layer was analyzed by HPLC with UV-detection, from which relevant peaks were collected and subjected to negative MALDI-MS analysis. […]

Sequence of NonJ (as listed by the source): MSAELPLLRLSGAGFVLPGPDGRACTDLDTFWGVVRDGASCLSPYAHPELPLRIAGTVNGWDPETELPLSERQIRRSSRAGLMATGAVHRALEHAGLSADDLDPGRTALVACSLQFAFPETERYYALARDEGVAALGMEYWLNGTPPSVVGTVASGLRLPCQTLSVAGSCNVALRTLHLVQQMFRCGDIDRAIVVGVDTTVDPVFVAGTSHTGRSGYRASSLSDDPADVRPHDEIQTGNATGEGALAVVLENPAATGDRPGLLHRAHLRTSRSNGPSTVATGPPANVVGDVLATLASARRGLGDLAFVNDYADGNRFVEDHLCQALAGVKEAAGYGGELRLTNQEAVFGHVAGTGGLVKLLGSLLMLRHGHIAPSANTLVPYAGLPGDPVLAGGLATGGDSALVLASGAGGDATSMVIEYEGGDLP

Row | Compound | conversion of (±)-3 to (±)-2 by NonL ([1]; in 2 hrs, 30° C., 2 mM ATP, 2 mM CoA, 2 mM (±)-3) | conversion into CoA derivative by purified NonL [1] | dimer (dimeric CoA ester) formation by NonJ [2]
1 | CC(O)CC1CCC(C(C)C(=O)O)O1 (racemic) [(±)-3, nonactic acid] | 80% | – | –
2 | (±)-2-n-propyl-nonactate [B] | – | no conversion was evident | –
3 | (±)-8-n-propyl nonactate [compound 8] | – | efficiently converted | converted the dimeric 8-CoA
4 | (±)-epi-2-n-propyl-nonactate | – | no conversion was evident | –
5 | (±)-epi-8-n-propyl-nonactate | – | efficiently converted | no dimeric A-CoA was found
